Experimental findings from patent publication EP0209707A2, “2-Aryl imidazoles, pharmaceutical compositions containing them and process for their preparation” (Dr. Karl Thomae GmbH, priority 1985, dated 1987) are described below.

Each structure is given as a SMILES string.

Experiment [1] has as its system narkotisierten Katze. Kind of experiment: Blood pressure effect and positive inotropic effect in the anaesthetised cat. It is filed as in vivo. To be noted: arterial pressure in Aorta abdominalis. How it is done: 1. Bestimmung der Blutdruckwirkung und der positiv inotropen Wirkung an der narkotisierten Katze
Die Untersuchungen wurden an Katzen durchgeführte die mit Pentobarbital-Natrium (40 mg/kg i.p.) narkotisiert waren. Die Tiere atmeten spontan. Der arterielle Blutdruck wurde in der Aorta abdominalis mit einem Statham-Druckwandler (P 23 Dc) gemessen. Für die Erfassung der positiv inotropen Wirkung wurde mit einem Kathetertipmanometer (Millar PC-350 A) der Druck in der linken Herzkammer gemessen. Daraus wurde der Kontraktilitätsparameter dp/dtmax mittels eines Analogdifferenzierers gewonnen. Die zu untersuchenden Substanzen wurden in eine Vena femoralis injiziert. Als Lösungsmittel diente Polydiol 200. Jede Substanz wurde an mindestens 2 Katzen geprüft.
Die nachfolgende Tabelle enthält die gefundenen Mittelwerte: […]

For experiment [2], the system named is Thrombozytenaggregation in plättchenreichem Plasma gesunder Versuchspersonen. The experiment is described as follows: Collagen-induced platelet aggregation (Born and Cross) in platelet-rich plasma. It is filed as cell-based. To be noted: 10 min, 50% change of optical density, plasma incubated 10 min with substance at 37°C. From the text: Die Thrombozytenaggregation wird nach der Methode von BORN und CROSS (J. Physiol. 170, 397 (1964)) in plättchenreichem Plasma gesunder Versuchspersonen gemessen. Zur Gerinnungshemmung wird das Blut mit Natriumcitrat 3,14 % im Volumenverhältnis 1:10 versetzt.
Der Verlauf der Abnahme der optischen Dichte der Plättchensuspension wird nach Zugabe der aggregationsauslösenden Substanz photometrisch gemessen und registriert. Aus dem Neigungswinkel der Dichtekurve wird auf die Aggregationsgeschwindigkeit geschlossen. Der Punkt der Kurve, bei dem die größte Lichtdurchlässigkeit vorliegt, dient zur Berechnung der "optical density".
Die Collagen-Menge wird möglichst gering gewählt, aber doch so, daß sich eine irreversibel verlaufende Reaktionskurve ergibt. Verwendet wird das handelsübliche Collagen der Firma Hormonchemie, München.
Vor der Collagen-Zugabe wird das Plasma jeweils 10 Minuten mit der Substanz bei 37°C inkubiert.
Aus den erhaltenen Meßzahlen wird graphisch eine EC50 berechnet, die sich auf eine 50%ige Änderung der "optical density" im Sinne einer Aggregationshemmung bezieht.

Where [3] appears, read: second value of the printed pair (presumably diastolic), 1 mg/kg i.v.

With `COC(=O)Nc1ccc(-c2nc3cnccc3[nH]2)c(OC)c1` [E, 2-(2'-Methoxy-4'-methoxycarbonylamino-phenyl)-imidazo-[4,5-c]pyridin], in experiment [1] (second value of the printed pair (presumably diastolic), 2 mg/kg i.v.), the “Blutdruck senkung in mm Hg” value is reported as -12 mm Hg.
As to `COc1cc(NS(C)(=O)=O)ccc1-c1nc2ccc(C#N)cc2[nH]1` [D, 5-Cyano-2-(4'-methansulfonylamino-2'-methoxy-phenyl)-benzimidazol], in experiment [1] (second value of the printed pair (presumably diastolic), 0,6 mg/kg i.v.), the “Blutdruck senkung in mm Hg” value was -27 mm Hg.
On to `COc1cc(S(C)(=O)=NC(C)=O)ccc1-c1nc2cc(C#N)ccc2[nH]1` (centres unmarked) [A, 2-[2'-Methoxy-4'-(N-acetyl-methylsulfoximino-phenyl)]-5-cyano-benzimidazol], for which the concentration for a half-maximal effect (EC50) in experiment [2] was 5.3 µM. Besides, the “Blutdruck senkung in mm Hg” value in experiment [1] (setting [3]) was -20 mm Hg.
`COc1cc(S(C)(=O)=O)ccc1-c1nc2ccc(C(C)=O)cc2[nH]1` [C, 2-(2'-Methoxy-4'-methylsulfonyl-phenyl)-5-acetyl-benzimidazol] displayed an EC50 in experiment [2] of 8 µM. Moreover, in experiment [1] (setting [3]), the “Blutdruck senkung in mm Hg” value is listed as -24 mm Hg.
Turning to `COc1cc([S+](C)[O-])ccc1-c1nc2ccc(C(C)=O)cc2[nH]1` (centres unmarked) [B, 2-(2'-Methoxy-4'-methylsulfinyl-phenyl)-5-acetyl-benzimidazol], the concentration giving a half-maximal response (EC50) in experiment [2] was found to be 8.2 µM. Moreover, the “Blutdruck senkung in mm Hg” value in experiment [1] (setting [3]) is -28 mm Hg.

The EC50 is the concentration at which the effect is half-maximal.
